Data set [1] has as its system orchiectomized (ORX) rabbits. Description: Dose effect on palmitate:stearate ratio in tears, harderian and Meibomian glands, Example 5. The format is in vivo, rabbit. The conditions noted are these: for Palmitate:stearate ratio in Meibomian gland / Palmitate:stearate ratio in harderian gland / Palmitate:Stearate Ratio in Tears: ORX rabbits; for Palmitate:stearate ratio in Meibomian gland / Palmitate:stearate ratio in harderian gland: mean; for Increase of lipid (palmitate:stearate) ratio in harderian glands: topical 1.25 mg/kg (highest dose tested); for Change in Meibomian gland lipids / Dose dependence of palmitate:stearate ratio in harderian glands / Dose dependence of palmitate:stearate ratio in tears: topical 0.625 and 1.25 mg/kg; for Palmitate:Stearate Ratio in Tears: day 15, mean. From the text: The goal of this study was to determine the effect of dosage amounts of Compounds 1 and 2 on tear composition.
Thirty New Zealand white rabbits weighing approximately 3 lbs were allowed to acclimate for two weeks before the start of the study Animals were weighed on day 0 of the study, randomized according to body weight and allotted to the following orchiectomized (ORX) dose groups:
Surgeries for the study were staggered to limit the maximum number of surgeries per day to six. One animal from each group was entered into the study every day and castration was performed as described below. Animals were premedicated with glycopyrrolate (0.02 mg/kg) and anesthesia was induced with a combination of ketamine (15 mg/kg): medetomidine (0.25 mg/kg). Anesthesia was maintained with isoflurane (1 liter/hr). Orchiectomy was performed using a scrotal incision. Animals were reversed from anesthesia using atipamezole (1 mg/kg) SQ. Analgesia was provided with buprenorphine (0.05 mg/kg) SQ immediately after the animal's regained sternal recumbency.
Immediately after recovery from anesthesia, the animals were dosed with the appropriate test articles as indicated above. Drug dosing was performed once daily for 14 d. Blood samples were collected on day 11 of dosing at 0, 30, 60, 120, 240 and 1440 minutes post administration and to plasma separated for LCMS analysis of parent drug concentrations. Tears were collected using Schirmer tear strips (Alcon, Tex.) on day 0 before surgery and 24 hours after the last administration of drug (day 15). The tears were stored at −80° C. until shipment for lipid analysis. Lipids were hydrolyzed, extracted from the Schirmer strips, derivatized, and subjected to GC-FID to evaluate the lipid composition. The samples were evaluated for the presence of 28 saturated and unsaturated fatty acids that included methyl caprate (C10:0), methyl laurate (C12:0), methyl 11-dodecenoate (C12:1), methyl myri state (C14:0), methyl myristoleate (C14:1), methyl palmitate (C16:0), methyl palmitoleate (C16:1), methyl stearate (C18:0), methyl oleate (C18:1), methyl vaccenate (C18:1), methyl linoleate (C18:2), methyl gamma linoleate (C18:3), methyl linoleate (C18:3), methyl arachidate (C20:0), methyl 11-eicosenoate (C20:1), methyl 11,14 eicosadinoate (C20:2), methyl 8,11,14 eicosatrienoate (C20:3), methyl eicosapentaenoate (C20:5), methyl behenate (C22:0), methyl erucate (C22:1), methyl 13,16 docosaenoate (C22:2), methyl docosatetraenoate (C22:4), methyl docosapentaenoate (C22:5), methyl docosahexaenoate (C22:6), methyl lignocerate and (C24:0), methyl nervonate (C24:1). Area under the curve for each individual peak was determined using the GC ChemStation software. To normalize for the tear content, the lipid composition was expressed as a ratio of the lipid that was most affected by castration (palmitate) to one which remained relatively constant (stearate).
At the end of the study, the animals were euthanatized. The harderian and Meibomian glands were collected for lipid analysis and snap frozen using an ethanol: dry ice bath. Samples were stored at −80 C until ready to ship for analysis.
Lipids in rabbit tears are derived from secretions of the harderian and Meibomian glands. Lipid content in the glands was assayed using GCMS. […] The lipid ratio was increased by more than 2-fold by Compound 1 (1.25 mg/kg), while the effect of Compound 2 was even greater with an almost 3-fold increase in the lipid ratio seen at the highest dose tested (1.25 mg/kg).

The nature of data set [2]: Plasma concentration of Compound 2 after topical or subcutaneous dosing, Example 3. It is filed as in vivo, rabbit. Conditions: one hour after last dose, LCMS. The procedure: Drug dosing was done once daily for 14 days. Blood was collected at 60 minutes post administration of the last dose of drug and plasma separated for HPLC analysis of parent drug concentrations.
To normalize for the tear content, the lipid composition was expressed as a ratio of the lipid that was most affected by castration (palmitate) to one which remained relatively constant (stearate). Blood was also collected on day 15 (24 hours after last drug administration) of the study, plasma separated and analyzed for Compound 2.
Systemic exposures after topical and subcutaneous administration were determined in peripheral blood samples collected one hour after drug administration on the last day of the study. Plasma concentrations of Compound 2 were measured using LCMS. Mean plasma concentrations of Compound 2 following topical administration were 1177±398.72 nM, while mean levels were 1210±311.93 nM in animals that received subcutaneous (SQ) doses.

Marks after values point to notes of the source that are not given here.

As to `C[C@](O)(COc1ccc(C#N)cc1)C(=O)Nc1ccc(C#N)c(C(F)(F)F)c1` [Compound 1, (S)—N-(4-Cyano-3-(trifluoromethyl)phenyl)-3-(4-cyanophenoxy)-2-hydroxy-2-methylpropanamide], in data set [1] (topical 0.625 mg/kg), the “Palmitate:stearate ratio in Meibomian gland” value came out at 3.29 and the “Palmitate:stearate ratio in harderian gland” value is on record as 3.45^a,b. Further, in data set [1] (topical 1.25 mg/kg), the “Palmitate:stearate ratio in Meibomian gland” value came to 3.68 and the “Palmitate:stearate ratio in harderian gland” value is reported as 4.87^a,b. Further, in data set [1], the “Increase of lipid (palmitate:stearate) ratio in harderian glands” value is on record as “more than 2 fold”, the “Change in Meibomian gland lipids” value is “No statistically significant change”, the “Dose dependence of palmitate:stearate ratio in harderian glands” value is “dose dependent increase” and the “Dose dependence of palmitate:stearate ratio in tears” value is listed as “no significant dose dependent changes”.

With `C[C@](O)(COc1ccc(C#N)c(F)c1)C(=O)Nc1ccc(C#N)c(C(F)(F)F)c1` [Compound 2, (S)—N-(4-cyano-3-(trifluoromethyl)phenyl)-3-(4-cyano-3-fluorophenoxy)-2-hydroxy-2-methylpropanamide], the concentration at 1 h in data set [2] (rabbit, plasma, subcutaneous 2.5 mg/kg) was 1210 ± 312 nM; in data set [2] (rabbit, plasma, topical 2.5 mg/kg), 1180 ± 399 nM; in data set [2] (subcutaneous 2.5 mg/kg), 1210 nM; in data set [2] (topical 2.5 mg/kg), 1177 nM. In addition, the “Palmitate:Stearate Ratio in Tears” value in data set [1] (topical 0.625 mg/kg once daily 14 d) is recorded as 2.67^a,b; in data set [1] (topical 1.25 mg/kg once daily 14 d), 3.93^a,b. Also, the “Palmitate:stearate ratio in Meibomian gland” value in data set [1] (topical 0.625 mg/kg) worked out at 3.36; in data set [1] (topical 1.25 mg/kg) it was 3.31. Moreover, the “Palmitate:stearate ratio in harderian gland” value in data set [1] (topical 0.625 mg/kg) is 6.09^a,b; in data set [1] (topical 1.25 mg/kg) it was 5.30^a,b. The “Increase of lipid (palmitate:stearate) ratio in harderian glands” value in data set [1] is about 3 fold. For the same compound, the “Change in Meibomian gland lipids” value in data set [1] is given as “No statistically significant change”. Besides, the “Dose dependence of palmitate:stearate ratio in harderian glands” value in data set [1] was “dose dependent increase”. Moreover, in data set [1], the “Dose dependence of palmitate:stearate ratio in tears” value is recorded as “dose dependent increase”.
